Consider one compound from US6355799B1, “Substituted benzene compounds, process for their preparation, and herbicidal and defoliant compositions containing them” (ISK Americas Incorporated, priority 1997, dated 2002).

Common to all, as to assay type: in vivo
Conditions in all cases: rated 14 days after application, 0 = no damage, 100 = complete death

Data set [1] deals with green foxtail (Setaria viridis, SETVI). The data set is described as follows: Pre-emerge test, greenhouse herbicide activity screening. Summed up: (§1)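 Plants grown in 10 cm pots of sandy loam mix received acetone-dissolved compounds through a moving flat-fan nozzle. Doses ranged from 15 to 1000 g ai/ha. Pre-emerge pots were seeded one day earlier, post-emerge pots 8–21 days earlier. Fourteen days on, each pot was graded 0–100 for damage.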

The subject of data set [2] is large crabgrass (Digitaria sanguinalis, DIGSA). The data set is described as above. Summed up: as §1
The test system of data set [3] is barnyardgrass (Echinochloa crus-galli, ECHCG). The description is as above. The method, boiled down:
as §1

Data set [4] concerns common ragweed (Ambrosia artemisizfolia L., AMBEL). The description is as above. The method, boiled down: as §1
For data set [5], the system named is ivyleaf morningglory (Ipomoea hederacea, IPOHE). Described as above. The method, boiled down:
as §1

For data set [6], the system named is sicklepod (Cassia obtusifolia, CASOB). The description is as above. Summed up:
as §1

Data set [7] concerns velvetleaf (Abutilon theophrasti, ABUTH). Described as above. The method, boiled down:
as §1

Data set [8] deals with lambsquarters (Chenopodium album, CHEAL). The data set is described as above. Summed up: as §1
Data set [9] has as its system johnsongrass (Sorghum halepense, SORHA). The description is as above. Summed up:
as §1

For data set [10], the system named is upland rice (Oryza sp., var. Tebonnet, RICE). The data set is described as follows: Pre-emerge test, crop safety. The method, boiled down:
(§2)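 Fourteen days after spraying, crop and weed injury was graded visually from 0, no effect, to 100, every plant dead. Test substances were dissolved in acetone and applied at 15–1000 g ai/ha with a flat-fan nozzle. Application was either pre-emergence, one day after sowing, or post-emergence at the 2–3 leaf stage.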

Data set [11] relates to field corn (Zea mays L., var. Dekalb 535, CORN). The data set is described as follows: Pre-emerge test, crop safety. Summed up: as §2
Data set [12] has as its system redroot pigweed (Amaranthus retroflexus, AMARE). Briefly: Pre-emerge test, greenhouse herbicide activity screening. The method, boiled down:
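Compounds in acetone were track-sprayed at 15-1000 g ai/ha (187 l/ha) on sandy loam pots: pre-emerge one day after seeding, post-emerge at 2-3 leaf stage with 0.25% v/v non-ionic surfactant. Phytotoxicity was rated 14 days later on a 0 (no damage) to 100 (complete death) scale.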

For the compound `CCOc1ccc(C(=O)Nc2c(OC)c(Cl)cc(F)c2-n2c(=O)cc(C(F)(F)F)n(C)c2=O)cc1` [2-64], the “Pre-emerge Herbicidal Activity, phytotoxicity rating (0-100), SETVI” value in data set [1] (63 g ai/ha) and in data set [1] (250 g ai/ha) was 100 each time. The “Pre-emerge Herbicidal Activity, phytotoxicity rating (0-100), DIGSA” value worked out at 40 in data set [2] (63 g ai/ha) and 70 in data set [2] (250 g ai/ha). Further, the “Pre-emerge Herbicidal Activity, phytotoxicity rating (0-100), ECHCG” value in data set [3] (63 g ai/ha) is given as 0; in data set [3] (250 g ai/ha), 60. Besides, the figures for the “Pre-emerge Herbicidal Activity, phytotoxicity rating (0-100), AMBEL” value in data set [4] (63 g ai/ha) and in data set [4] (250 g ai/ha) were 0 and 60, respectively. In addition, the entries for the “Pre-emerge Herbicidal Activity, phytotoxicity rating (0-100), IPOHE” value in data set [5] (63 g ai/ha) and in data set [5] (250 g ai/ha) were 0 and 40, respectively. The “Pre-emerge Herbicidal Activity, phytotoxicity rating (0-100), CASOB” value came out at 0 in [6] (63 g ai/ha) and 100 in [6] (250 g ai/ha). In addition, the “Pre-emerge Herbicidal Activity, phytotoxicity rating (0-100), ABUTH” value in data set [7] (63 g ai/ha) and in data set [7] (250 g ai/ha) was 100 throughout. For the same compound, the figures for the “Pre-emerge Herbicidal Activity, phytotoxicity rating (0-100), CHEAL” value in data set [8] (63 g ai/ha) and in data set [8] (250 g ai/ha) were 90 and 100, respectively. Moreover, the “Pre-emerge Herbicidal Activity, phytotoxicity rating (0-100), SORHA” value in data set [9] (63 g ai/ha) came to 10; in data set [9] (250 g ai/ha), 50. In addition, the “Pre-emerge phytotoxicity rating (0-100), crop damage, RICE” value in [10] (63 g ai/ha) is recorded as 10; in [10] (250 g ai/ha), 60. The “Pre-emerge phytotoxicity rating (0-100), crop damage, CORN” value in data set [11] (63 g ai/ha) came out at 0; in data set [11] (250 g ai/ha), 35. For the same compound, the “Pre-emerge Herbicidal Activity, phytotoxicity rating (0-100), AMARE” value came out at 90 in data set [12] (63 g ai/ha) and 100 in data set [12] (250 g ai/ha).
